Data taken from patent US20230192764A1, “NOVEL DOPAMINE PRECURSORS” (Yissum Research Development Company of the Hebrew …, priority 2018, published 2023).
Where “and” joins values, the source holds several entries; their conditions need not be identical. Identical values can stand only once.

Experiments:
[1] = Body weight monitoring in rotenone-treated rats; type: in vivo, Sprague Dawley rats; details: for Weight: individual rat, listed as SDA
Method: 1-SD (Rotenone + SD); 2 - SDA (Rotenone + SDA); 3 - Control (Rotenone); 4 -Naive. The experimental groups were comprised of 6 animals for treated groups (1-3) and 2 animals in naive group (4). Rotenone was administrated 3.0 mg/kg intraperitoneally (IP) once a day in the morning (days 1-9). SD 33 mg/kg and SDA 33 mg/kg were administrated intraperitoneally once a day in the afternoon (days 1-9).
Animals weight was measured before initiation of treatment (day 0), on days 4,7, 9 during the experiment and on termination day 11. On day 11, animals were sacrificed and brains were harvested for further histopathological analysis.
IP administration: Rotenone was administrated to groups 1-3. Rotenone was injected intraperitoneally at a dose 3.0 mg/kg once a day in the morning (days 1-9). SD and SDA was administrated both at a dose of 33 mg/kg and were injected intraperitoneally once a day in the afternoon (days 1-9). Group number 4 was untreated, and remained as a naive group.

PC12 cells = assay: Phase microscopy of AuF-induced morphological changes in PC12 cells; type: cell-based; details: 2 µM AuF 30 min, washed, 150 µM SDA, 37° C., 4 hrs; listed as SDA
Method: PC12 cells were treated with AuF with or without SD-444. Morphological changes were visualized 4 hr later (magnification x200).
(FIG. 7A) Control untreated PC12 cells (FIG. 7B). PC12 cells were treated with AuF (2 µM; 30 min) lose their morphology and become rounded, as compared to untreated cells. […] Cells were treated with AuF (2 µM) for 30 min, washed and then SDA was added at 25 µM or 100 µM. Cells were visualized 4 hr later (magnification, 100 × and 400 x).
C) Phase microscopy studies: The ability of SD-444 to rescue cells from oxidative stress was tested by exposing the PC12 to 2 µM auranofin for 30 min, and after washing incubated with 250 µM SD-444 at 37° C. for additional 4 hrs.
B) Phase microscopy studies: The ability of SDA to rescue the cells from oxidative stress was tested by exposing the PC12 to auranofin 2 µM for 30 min with or without 150 µM SDA. AuF was washed after 30 min and 150 µM SDA was added and allowed to incubate at 37° C. for additional 4 hrs.

SMILES: CC(=O)NC(CS)C(=O)NC(Cc1cccc(O)c1O)C(N)=O (centres unmarked) [SDA-341, Acetyle-Cys-2,3 dihydroxyphenylalanine-amide]
- Weight, group average ([1]; average n=6, day 0 (before treatment)): 304.33 gr
- Weight, group average ([1]; average n=6, day 4): 294.17 gr
- Weight, group average ([1]; average n=6, day 7): 284.33 gr
- Weight, group average ([1]; average n=6, day 9): 275.50 gr
- Weight, group average ([1]; average n=6, day 11): 271.33 gr
- Weight ([1]; day 0 (before treatment), rotenone 3 mg/kg + compound 33 mg/kg IP): 292 gr and 307 gr (2×) and 305 gr and 315 gr and 300 gr
- Weight ([1]; day 4, rotenone 3 mg/kg + compound 33 mg/kg IP): 284 gr and 293 gr and 299 gr (2×) and 294 gr and 296 gr
- Weight ([1]; day 7, rotenone 3 mg/kg + compound 33 mg/kg IP): 274 gr and 283 gr (2×) and 287 gr and 288 gr and 291 gr
- Weight ([1]; day 9, rotenone 3 mg/kg + compound 33 mg/kg IP): 275 gr and 272 gr and 267 gr and 274 gr and 281 gr and 284 gr
- Weight ([1]; day 11, rotenone 3 mg/kg + compound 33 mg/kg IP): 272 gr and 261 gr and 269 gr and 266 gr and 283 gr and 277 gr
- morphology of AuF-treated PC12 cells (PC12 cells): normal morphology
